The target of assay [1] is T1, GRP receptor (Rattus norvegicus, UniProt P52500).
T1 construct: endogenous in cells; host or cells: rat AR42J pancreatic acinar cells (membrane preparation)
As to the kind of experiment: Assay on binding to GRP receptor ([125I-Tyr4]bombesin displacement, AR42J cell membranes). As to conditions: rat AR42J cell membranes, [125I-Tyr4]bombesin, 30 min, 4° C.; read-out: IC50, affinity binding for the GRP receptors. On the procedure: Rat AR42J pancreatic acinar cells were cultured in Dulbecco's modified Eagle's medium without antibiotics and supplemented with 10% (vol/vol) fetal calf serum. The incubation atmosphere consisted of 10% C)2 -90% humidified air at 37° C.
Membranes for the bombesin receptor binding assay were obtained by homogenizing AR42J cells (Polytron, setting 6, 15 sec) in ice-cold 50 mM Tris-HCl (Buffer A) and centrifuging twice at 39,000× g (10 min), with an intermediate resuspension in fresh buffer. The final pellets were resuspended in 50 mM Tris-HCl, containing 0.1 mg/ml bacitracin, and 0.1% BSA (Buffer B), and held on ice for the receptor binding assay.
For assay, aliquots (0.4 ml) were incubated with 0.05 ml [^125 I-Tyr^4 ] bombesin (~2200 Ci/mmol, New England Nuclear) and Buffer B, with and without 0.05 ml of unlabeled competing analogs. After a 30 min incubation (4° C.), the bound [^125 I-Tyr^4 ] bombesin was separated from the free by rapid filtration through GF/B filters which had been previously soaked in 0.1% polyethyleneimine. The filters were then washed three times with 5 ml aliquots of ice-cold Buffer A. Specific binding was defined as the total [^125 I-Tyr^4 ] bombesin bound minus that bound in the presence of 1 μM unlabeled bombesin.

For assay [2], the system named is AT-3 carcinoma of the rat prostate. As to the kind of experiment: Subcutaneous tumor assay, AT-3 prostate tumor. As to conditions: AT-3, s.c. xenografts in athymic nudes, 100 μg/injection, b.i.d. In kind it is in vivo. On the procedure: (§1) Treatment of tumors induced by subcutaneous implantation of in vitro maintained cell cultures was initiated only when well established as progressively growing tumors in the first transplant generation from in vitro culture. "No takes" were culled and animals with tumors of similar size were carefully randomized into control and test groups.
(§2) Analogues were tested against all tumor systems except SCLC's and NSCLC's at a screening dose of 100 μg/injection, s.c., in the flank opposite from the tumor, b.i.d. Lung tumors (SCLC and NSCLC) were tested at 250 μg/injection, s.c., b.i.d. Rat breast tumors were tested at 400 Ag/injection, s.c., b.i.d., an equivalent extrapolation from the mouse dose.
(§3) In vivo transplantation established tumor systems were implanted s.c. as a 1-2 mm^3 mince of tumor tissue. Treatment was initiated within 2 to 3 days of implantation.
(§4) Tumor weights (mgs) from tumor dimensions (mm×mm) were calculated following the formula of a prolate ellipsoid: […]
(§5) L×W^2 /2, where L is the longer of the two measurements.
(§6) Tumor measurements were determined with a vernier caliper three times/week.
AT-3 Androgen resistant, undifferentiated fast growing
carcinoma of the rat prostate. A subline of R-3327-H.
Tested as subcutaneous xenografts in athymic nudes.

For assay [3], the system named is 11095 squamous cell carcinoma of the rat prostate. As to the kind of experiment: Subcutaneous tumor assay, 11095 prostate tumor. In kind it is in vivo. As to conditions: 11095, s.c. xenografts in athymic nudes, 100 μg/injection, b.i.d. On the procedure: as §1, §2, §3, §4, §5, §6
11095 Androgen insensitive, squamous cell carcinoma of the rat
prostate. Originating and transplantable in Fischer 344
strain rats. Tested as subcutaneous xenografts in […]

For assay [4], the system named is 2PR121D(1)/R adenocarcinoma of the rat prostate. Kind of assay: Subcutaneous tumor assay, 2PR121D(1)/R prostate tumor. Type of assay: in vivo. As to conditions: s.c. tumors in Nb strain rats, 100 μg/injection, b.i.d. On the procedure: as §1, §2, §3, §4, §5, §6
Androgen resistant, poorly
differentiated adenocarcinoma
of the rate prostate derived as an androgen resistant
subline of 2PR121D(1)/S. Tested as subcutaneous tumors

The subject of assay [5] is MX-1 human mammary carcinoma. As to the kind of experiment: Subcutaneous tumor assay, MX-1 breast tumor. In kind it is in vivo. As to conditions: MX-1, s.c. xenografts in athymic nude females, 100 μg/injection, b.i.d. On the procedure:
as §1, §2, §3, §4, §5, §6
MX-1 Estrogen independent, human poorly
carcinoma. Tested as subcutaneous xenografts in athymic

The subject of assay [6] is MT/W9Q-S breast tumor. Kind of assay: Subcutaneous tumor assay, MT/W9Q-S breast tumor. In kind it is in vivo. As to conditions: rat breast tumors tested at 400 Ag/injection, s.c., b.i.d. On the procedure:
as §1, §2, §3, §4, §5, §6

The test system of assay [7] is 13762NF rat mammary tumor. Kind of assay: Subcutaneous tumor assay, 13762NF breast tumor. As to conditions: 13762NF in Fischer 344 strain rats; rat breast tumors tested at 400 Ag/injection, s.c., b.i.d. Type of assay: in vivo. Here is the method: as §1, §2, §3, §4, §5, §6
13762NF Estrogen insensitive rat mammary tumor transplantable in
Fischer 344 strain rats.

Assay [8] deals with CX-1 colon tumor. As to the kind of experiment: Subcutaneous tumor assay, CX-1 colon tumor. In kind it is in vivo, human. As to conditions: 100 μg/injection, s.c., b.i.d. On the procedure:
as §1, §2, §3, §4, §5, §6
CZ-1 Mucinous adenocarcinoma, human, tested as xenografts in […]

In assay [9] the test system is CX-5 colon tumor. Kind of assay: Subcutaneous tumor assay, CX-5 colon tumor. As to conditions: 100 μg/injection, s.c., b.i.d. Type of assay: in vivo, human. On the procedure:
as §1, §2, §3, §4, §5, §6
GOB-G Moderately differentiated adenocarcinoma, human, tested
as xenografts in athymic nude females.

Assay [10] deals with M5123 hepatoma. As to the kind of experiment: Subcutaneous tumor assay, M5123 hepatoma. Type of assay: in vivo, rat. As to conditions: 100 μg/injection, s.c., b.i.d. On the procedure: as §1, §2, §3, §4, §5, §6
The subject of assay [11] is M7777 hepatoma. Kind of assay: Subcutaneous tumor assay, M7777 hepatoma. In kind it is in vivo, rat. As to conditions: 100 μg/injection, s.c., b.i.d. On the procedure: as §1, §2, §3, §4, §5, §6
Assay [12] has as its system M7806 hepatoma. As to the kind of experiment: Subcutaneous tumor assay, M7806 hepatoma. In kind it is in vivo, rat. As to conditions: 100 μg/injection, s.c., b.i.d. On the procedure:
as §1, §2, §3, §4, §5, §6

Assay [13] concerns NCI-H345 human small cell lung cancer (SCLC). As to the kind of experiment: Subcutaneous tumor assay, NCI-H345 lung tumor. In kind it is in vivo. As to conditions: NCI-H345 SCLC, s.c. xenografts in athymic nudes; 250 μg/injection, s.c., b.i.d. Here is the method: as §1, §2, §3, §4, §5, §6
An in vitro maintained human small cell lung cancer
(SCLC) graciously prided by Dr. A. Gazdar. Cell
agglomerates produce slow, progressively growing tumors
in approximately 80% of athymic nude mice
when implanted subcutaneously. Tested as
well established subcutaneous
xenografts in athymic nudes.

The subject of assay [14] is A-549 human non-small cell lung cancer (NSCLC). Kind of assay: Subcutaneous tumor assay, A-549 lung tumor. Type of assay: in vivo. Here is the method: as §1, §2, §3, §4, §5, §6
A-549 An in vitro maintained human non-small cell lung cancer
(NSCLC) obtained from the American Type Culture
Collection repository. Implanted s.c. as a cell
suspension and resultant tumors treated when tumors were […]

The subject of assay [15] is different human and animal tumors. As to the kind of experiment: Assay on inhibition of tumor growth, overall statement. Type of assay: in vivo. As to conditions: summary of Table 3; inhibitory activity when Percent Test/Control < 80% T/C. On the procedure:
as §1, §2, §3, §4, §5, §6

The structures appear in SMILES notation. pIC50: −log10 of the molar value.

T1 sequence (P52500 whole entry): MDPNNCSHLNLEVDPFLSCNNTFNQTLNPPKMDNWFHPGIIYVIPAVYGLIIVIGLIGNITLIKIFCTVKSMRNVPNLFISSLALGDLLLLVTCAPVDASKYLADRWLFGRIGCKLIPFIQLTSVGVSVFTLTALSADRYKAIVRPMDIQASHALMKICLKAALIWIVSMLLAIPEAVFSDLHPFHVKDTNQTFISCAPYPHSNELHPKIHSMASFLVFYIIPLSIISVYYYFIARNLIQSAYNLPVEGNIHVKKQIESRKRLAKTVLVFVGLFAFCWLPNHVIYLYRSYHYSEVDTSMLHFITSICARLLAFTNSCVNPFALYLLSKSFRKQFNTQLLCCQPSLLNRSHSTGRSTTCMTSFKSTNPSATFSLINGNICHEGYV

Usually pIC50 stands for the negative decadic logarithm of the IC50, by convention in mol/L. Take `CC(C)C[C@H](NC(=O)[C@H](CC(C)C)NC(=O)[C@H](Cc1c[nH]cn1)NC(=O)CNC(=O)[C@@H](NC(=O)[C@H](C)NC(=O)[C@H](Cc1c[nH]c2ccccc12)NC(=O)[C@H](CCC(N)=O)NC(=O)[C@H](N)Cc1ccccc1)C(C)C)C(N)=O` [BIM-26187, H-D-Phe-Gln-Trp-Ala-Val-Gly-His-Leu-Leu-NH2]: the pIC50 in assay [1] was 8.30. For the same compound, the “Percent Test/Control (tumor weight)” value in [2] is 36%; in assay [3] it was 50%; in assay [4], 70%; in assay [5], 78%; in [6], 45%; in assay [7], 70%. The “Percent Test/Control (tumor weight)” value in assay [8] was 31%; in assay [9], 83%; in assay [10], 62%; in assay [11], 67%; in assay [12], 83%; in [13], 66%. The “Percent Test/Control (tumor weight)” value in assay [14] (A-549 NSCLC, implanted s.c., 250 μg/injection, s.c., b.i.d.) is on record as 63%. In addition, the “growth inhibitory effect on non-small cell lung carcinoma (NSCLC)” value in [14] (FIG. 2) was “capable of inhibiting”. Besides, the “inhibition of the growth of different human and animal tumors” value in assay [15] is “capable of inhibiting the growth”.

The record behind these values is patent publication US5767236A, “Linear therapeutic peptides” (Biomeasure, Inc., priority 1995, dated 1998).
